Measured values from patent US9872861B2, “Methods of treatment using selective Bcl-2 inhibitors” (AbbVie Inc., priority 2010, dated 2018).
Marks after values point to notes of the source that are not given here.

Experiments:
H146 cells = test: Cellular efficacy in Bcl-XL dependent tumor cell line H146; assay type: cell-based; conditions: Homo sapiens, NCI-H146; 10% HS
[1] = test system: IFNα-induced (NZB×NZW)F1 lupus model; test: IFNα-induced (NZB×NZW)F1 lupus model: proteinuria, survival, lymphopenia; assay type: in vivo, (NZB×NZW)F1 mice
Experimental: (§1) Treatment was initiated in a late-prophylactic mode (7 days after IFNα adenovirus). […] All treatment groups were administered treatment 7 days after adenovirus injection. Following adenovirus injection, mice were monitored weekly for proteinuria (PU) using Albustix test strips (VWR). Severe PU was defined by consecutive weekly measurements of PU≧300 mg/dl. When mice became moribund, they were sacrificed according to Institutional Animal Care and Use Committee protocols.

FL5.12-Bcl-XL cells = test: Cellular efficacy in FL5.12 cells dependent on Bcl-XL; assay type: cell-based, murine; conditions: Mus musculus, 3% FBS
[2] = Exposure in IFNα-induced lupus model; assay type: in vivo
Experimental: as §1

Mcl-1 = Mcl-1 (Homo sapiens, UniProt Q07820); test: TR FRET competitive binding affinity, Mcl-1; conditions: read-out: Target Affinity TR FRET, Mcl-1
Chain of Mcl-1 (Q07820 whole entry): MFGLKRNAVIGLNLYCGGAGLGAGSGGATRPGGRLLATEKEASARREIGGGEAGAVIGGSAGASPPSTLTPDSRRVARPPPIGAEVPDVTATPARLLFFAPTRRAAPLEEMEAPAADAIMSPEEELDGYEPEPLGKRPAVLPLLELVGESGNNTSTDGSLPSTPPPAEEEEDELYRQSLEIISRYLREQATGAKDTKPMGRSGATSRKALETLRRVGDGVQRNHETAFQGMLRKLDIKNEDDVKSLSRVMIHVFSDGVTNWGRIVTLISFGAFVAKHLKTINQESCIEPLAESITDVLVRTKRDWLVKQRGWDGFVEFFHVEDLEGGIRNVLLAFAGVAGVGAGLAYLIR
Experimental: A comparison of the binding affinity for each of the compounds was performed to determine target affinity, as measured by Time-Resolved Fluorescence Resonance Energy Transfer (TR FRET).

[3] = test system: spontaneous (NZB×NZW)F1 murine model of lupus; test: Spontaneous (NZB×NZW)F1 murine model of lupus: proteinuria, survival, lymphopenia; assay type: in vivo, (NZB×NZW)F1 mice
Source text: (See Liu, K. and C. Mohan, What do mouse models teach us about human SLE? Clin Immunol, 2006. 119(2): p. 123-30) This model has been well-characterized with respect to the patho-physiological changes analogous to those of human SLE. […] Renal histopathological changes include severe glomerulonephritis, mesangial and peripheral proliferative changes, capillary membrane thickening, tubular atrophy, and infiltration of lymphocytes and monocytes/macrophages as in the majority of human SLE patients. These changes result in disruption of kidney function as evidenced by severe proteinuria (PU) greater than 300 mg/dL as measured by albumin sticks, followed by mortality as measured by survival. […] (See Gelfand, M. C. and A. D. Steinberg, Therapeutic studies in NZB-W mice. II. Relative efficacy of azathioprine, cyclophosphamide and methylprednisolone. Arthritis Rheum, 1972. 15(3): p. 247-52; and Ramos, M. A., et al., Modulation of autoantibody production by mycophenolate mofetil: effects on the development of SLE in (NZB×NZW)F1 mice. Nephrol Dial Transplant, 2003. 18(5): p. 878-83)
(NZB×NZW)F1 females were purchased from The Jackson Laboratory (Bar Harbor, Me., USA) and maintained in a conventional animal housing facility throughout the experiment. […] Proteinuria (PU) and survival were monitored weekly, followed by biweekly measurement of lymphocyte and platelet counts, and anti-ds DNA production. PK parameters were also measured throughout the study. Impact on IgG deposition and renal pathology were assessed at the conclusion of the study. Severe PU was defined by two consecutive weekly measurements of PU 300 mg/dl using Albustix test strips (VWR). When mice became moribund, they were sacrificed according to Institutional Animal Care and Use Committee protocols. PU and survival data were presented as Kaplan-Meyer survival curves using Graphpad Prism software and group differences were considered significant at the level of p<0.05. Histologic scores were analyzed using ANOVA analysis. Anti-ds DNA were analyzed using one-way ANOVA analysis and Tukey post-test.

IgG anti-ds DNA = test: Anti-ds DNA titer by ELISA in spontaneous lupus model; assay type: in vivo, (NZB×NZW)F1 mice
Experimental: It is believed that Compound 1 triggers apoptosis of lymphocytes that are responsible for production of antibodies, which play a role in the progression of systemic lupus erythematosus, as well as Sjogren's Syndrome. […] Specifically, anti-dsDNA antibody levels were measured by ELISA and assigned arbitrary activity unit concentrations per ml relative to a standard plasma pool derived from proteinuric 9-10 month old NZB/W mice. ELISA assay was performed by coating plates with poly-L-lysine followed by calf-thymus DNA. Diluted mouse plasma was incubated and developed using anti-IgG HRP conjugated antibodies and the mean OD from duplicate wells was compared to a titrated standard curve of pooled high tittered anti-dsDNA plasma. The undiluted standard plasma pool was arbitrarily assigned a value of 1000 anti-dsDNA Units/ml. A linear regression analysis was then used to calculate the relative units of a given sample multiplied by the given dilution factor.

[4] = test system: cells dependent on Bcl-2 for survival; test: Mechanism of cell killing (apoptosis hallmarks); assay type: cell-based
Source text: As also shown in Table 1B, additional compounds show selective binding affinity for Bcl-2 over Bcl-XL and other Bcl-2 family proteins.

renal tissue = test: Renal histology and immunohistochemistry in spontaneous lupus nephritis mice; assay type: in vivo, (NZB×NZW)F1 mice
Experimental: An experiment was performed to determine the extent to which the selective Bcl-2 inhibitors infiltrated the kidney tissue. Specifically, a histologic assessment of the penetration of selective Bcl-2 inhibitors into the renal tissue of spontaneous murine model for lupus was performed. The spontaneous murine model of lupus, as described in Example 3, was used for the histological assessment described herein. The kidneys were bisected and then fixed in 10% neutral-buffered formalin or cryopreserved (snap frozen). For H&E staining, 5-μm sections from paraffin-embedded tissues were semiquantitatively scored (0-4) by an experienced pathologist for glomerulonephritis and tubular changes (dilation and casts). For IgG immunohistochemistry, 5-μm cryosections were fixed with acetone, washed, and blocked with 10% normal goat serum. Sections were then incubated with FITC-conjugated goat anti-mouse IgG (Cappel/ICN Pharmaceuticals) or negative control HRP-goat IgG (Jackson ImmunoResearch Laboratories) and coverslipped using Vectashield with 4′,6-diamidino-2-phenylindole (Vector Laboratories). Sections were evaluated for severity of IgG deposition using a semiquantitative scoring system (from 0-4). To identify for B and T cells, immunohistochemistry for CD45R (B cells) and CD3 (T cells) was completed on paraffin sections. FIGS. 6 and 7 illustrate the results of the histological assessment, and FIG. 8 illustrates the effect of selective Bcl-2 inhibitor treatment on IgG deposition, B cells, and T cells in the kidneys.

Question: With `CC1(C)CCC(CN2CCN(c3ccc(C(=O)NS(=O)(=O)c4ccc(NCC5CCOCC5)c([N+](=O)[O-])c4)c(Oc4cnc5[nH]ccc5c4)c3)CC2)=C(c2ccc(Cl)cc2)C1` [Compound 1, 4-(4-{[2-(4-chlorophenyl)-4,4-dimethylcyclohex-1-en-1-yl]methyl}piperazin-1-yl)-N-({3-nitro-4-[(tetrahydro-2H-pyran-4-ylmethyl)amino]phenyl}sulfonyl)-2-(1H-pyrrolo[2,3-b]pyridin-5-yloxy)benzamide] as the molecule, how does the EC50 (H146 cells) read?
Answer: The EC50 was 3.6 µM.

Question: What about the “lymphopenia in the blood throughout treatment” value ([1]; 30 mg/kg) of the same molecule?
Answer: Its value is over 70%.

Question: What about the “% Mice with PU < 300 mg/dL” value ([1]; 30 mg/kg/day orally) of the same molecule?
Answer: Its value is 77* %.

Question: What about the “% Survival” value ([1]; 30 mg/kg/day orally) of the same molecule?
Answer: The value was 82* %.

Question: And the “onset of severe PU and survival” value ([1]; 30 and 100 mg/kg)?
Answer: Its value is “significantly delayed the onset of severe PU and prolonged survival”.

Question: What about the EC50 (FL5.12-Bcl-XL cells) of the same molecule?
Answer: Its EC50 is 0.261 µM.

Question: And the target efficacious exposure [2]?
Answer: Its target efficacious exposure is “approximately 40 μg·h/mL”.

Question: What about the Ki (Mcl-1) of the same molecule?
Answer: Its Ki is over 0.44 µM.

Question: And the “% Mice with PU < 300 mg/dL” value ([3]; Week 47, 1 mg/kg daily oral)?
Answer: Its value is 51%.

Question: And the “% Survival” value ([3]; Week 47, 1 mg/kg daily oral)?
Answer: The value was 60%.

Question: What about the “% Mice with PU < 300 mg/dL” value ([3]; Week 47, 3 mg/kg daily oral) of the same molecule?
Answer: Its value is 50%.

Question: And the “% Survival” value ([3]; Week 47, 3 mg/kg daily oral)?
Answer: The value was 70%.

Question: What about the “% Mice with PU < 300 mg/dL” value ([3]; Week 47, 10 mg/kg daily oral) of the same molecule?
Answer: Its value is 66* %.

Question: What about the “% Survival” value ([3]; Week 47, 10 mg/kg daily oral) of the same molecule?
Answer: The value was 83* %.

Question: And the “% Mice with PU < 300 mg/dL” value ([3]; Week 47, 30 mg/kg daily oral)?
Answer: Its value is 94* %.

Question: What about the “% Survival” value ([3]; Week 47, 30 mg/kg daily oral) of the same molecule?
Answer: The value was 100* %.

Question: And the “% Mice with PU < 300 mg/dL” value ([3]; Week 47, 100 mg/kg daily oral)?
Answer: Its value is 100* %.

Question: And the “% Survival” value ([3]; Week 47, 100 mg/kg daily oral)?
Answer: The value was 100* %.

Question: What about the “lymphopenia in peripheral blood” value ([3]; spontaneous model, 30 mg/kg) of the same molecule?
Answer: Its value is 70%.

Question: What about the “lymphopenia in peripheral blood” value ([3]; spontaneous model, 100 mg/kg) of the same molecule?
Answer: Its value is 70%.

Question: What about the survival ([3]; spontaneous model, 3, 10, 30 and 100 mg/kg) of the same molecule?
Answer: Its survival is “significantly prolonged survival”.

Question: And the “onset of severe PU” value ([3]; spontaneous model, reaching significance at 10, 30 and 100 mg/kg)?
Answer: The value was “delayed onset of severe PU in a dose-dependent fashion”.

Question: And the “anti-ds DNA titer” value (IgG anti-ds DNA; spontaneous model, 1, 3 and 10 mg/kg)?
Answer: Its value is “no appreciable reduction”.

Question: And the “anti-ds DNA titer vs vehicle control” value (IgG anti-ds DNA; spontaneous model, week 40, 30 and 100 mg/kg)?
Answer: Its value is “significantly inhibited the increase in anti-ds DNA titer”.

Question: What about the “hallmarks of apoptotic cell death” value [4] of the same molecule?
Answer: Its value is “rapid cytochrome c release, caspase-3 and -7 activation, and membrane phosphatidylserine (PS) externalization”.

Question: And the “caspase dependence of cell killing” value ([4]; ablated by pan caspase inhibitor z-VAD-fmk)?
Answer: The value was “caspase-dependent”.

Question: And the “IgG deposition in renal tissue” value (renal tissue; 30 mg/kg)?
Answer: Its value is “decrease in IgG deposition”.

Question: And the “renal histology scores (glomerulonephritis, tubular changes, perivascular infiltrates)” value (renal tissue; 30 mg/kg and 100 mg/kg)?
Answer: Its value is “statistically significant improvement”.

Question: And the “B cell and T cell numbers in renal tissue” value (renal tissue; 100 mg/kg)?
Answer: Its value is “decreases in B cell and T cell numbers”.

Question: What about the renal tissue infiltrates (renal tissue; 30 or 100 mg/kg) of the same molecule?
Answer: Its renal tissue infiltrates is “small, discrete and less frequent”.
